Measurements taken from ChEMBL document CHEMBL5625247, “Tetrahydro-β-carboline derivatives as potent histone deacetylase 6 inhibitors with broad-spectrum antiproliferative activity” (Eur J Med Chem, 2023).
The source made the active and inactive calls. The rule behind the calls is not given here.

What was measured:
[1] = target: Polyamine deacetylase HDAC10 (Homo sapiens, UniProt Q969S8); assay: Inhibition of HDAC10 (unknown origin) TR-FRET assay; parameters: species or system Sf9
[2] = target: Histone deacetylase 3 (Homo sapiens, UniProt O15379); assay: Inhibition of HDAC3 (unknown origin) expressed in baculovirus infected in Sf9 cells using RHKKAc as substrate preincubated for 5 to 10 mins followed by substrate addition measured after 2 hrs by fluorescence based assay
Histone deacetylase 3, sequence (O15379 whole entry): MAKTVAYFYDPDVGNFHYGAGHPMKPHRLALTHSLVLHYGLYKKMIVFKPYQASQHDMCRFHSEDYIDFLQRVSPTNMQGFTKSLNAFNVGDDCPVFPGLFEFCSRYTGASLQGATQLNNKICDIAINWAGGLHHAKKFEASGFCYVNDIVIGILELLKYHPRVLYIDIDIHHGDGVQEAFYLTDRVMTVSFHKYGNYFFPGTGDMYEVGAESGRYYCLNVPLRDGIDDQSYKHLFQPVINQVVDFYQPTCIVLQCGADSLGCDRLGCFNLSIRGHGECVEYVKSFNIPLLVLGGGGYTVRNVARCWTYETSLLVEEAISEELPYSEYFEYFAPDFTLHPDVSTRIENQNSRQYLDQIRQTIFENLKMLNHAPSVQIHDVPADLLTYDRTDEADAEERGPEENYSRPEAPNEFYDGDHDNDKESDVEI

[3] = target: Histone deacetylase 8 (Homo sapiens, UniProt Q9BY41); assay: Inhibition of HDAC8 (unknown origin) expressed in baculovirus infected in Sf9 cells using RHKKAc as substrate preincubated for 5 to 10 mins followed by substrate addition measured after 2 hrs by fluorescence based assay
Histone deacetylase 8, sequence (Q9BY41 whole entry): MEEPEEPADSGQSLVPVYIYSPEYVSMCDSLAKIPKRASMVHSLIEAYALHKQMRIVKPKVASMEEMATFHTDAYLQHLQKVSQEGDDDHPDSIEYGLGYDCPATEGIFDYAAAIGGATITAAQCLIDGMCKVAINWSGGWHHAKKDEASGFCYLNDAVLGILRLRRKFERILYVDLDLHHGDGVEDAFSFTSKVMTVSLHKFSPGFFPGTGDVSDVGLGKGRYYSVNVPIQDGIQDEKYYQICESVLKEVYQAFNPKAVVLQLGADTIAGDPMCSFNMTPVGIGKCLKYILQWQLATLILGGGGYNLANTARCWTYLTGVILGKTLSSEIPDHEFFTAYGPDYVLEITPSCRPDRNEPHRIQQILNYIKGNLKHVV

[4] = target: Histone deacetylase 9 (Homo sapiens, UniProt Q9UKV0); assay: Inhibition of HDAC9 (unknown origin) expressed in baculovirus infected in Sf9 cells using RHKKAc as substrate preincubated for 5 to 10 mins followed by substrate addition measured after 2 hrs by fluorescence based assay
Histone deacetylase 9, sequence (Q9UKV0 whole entry): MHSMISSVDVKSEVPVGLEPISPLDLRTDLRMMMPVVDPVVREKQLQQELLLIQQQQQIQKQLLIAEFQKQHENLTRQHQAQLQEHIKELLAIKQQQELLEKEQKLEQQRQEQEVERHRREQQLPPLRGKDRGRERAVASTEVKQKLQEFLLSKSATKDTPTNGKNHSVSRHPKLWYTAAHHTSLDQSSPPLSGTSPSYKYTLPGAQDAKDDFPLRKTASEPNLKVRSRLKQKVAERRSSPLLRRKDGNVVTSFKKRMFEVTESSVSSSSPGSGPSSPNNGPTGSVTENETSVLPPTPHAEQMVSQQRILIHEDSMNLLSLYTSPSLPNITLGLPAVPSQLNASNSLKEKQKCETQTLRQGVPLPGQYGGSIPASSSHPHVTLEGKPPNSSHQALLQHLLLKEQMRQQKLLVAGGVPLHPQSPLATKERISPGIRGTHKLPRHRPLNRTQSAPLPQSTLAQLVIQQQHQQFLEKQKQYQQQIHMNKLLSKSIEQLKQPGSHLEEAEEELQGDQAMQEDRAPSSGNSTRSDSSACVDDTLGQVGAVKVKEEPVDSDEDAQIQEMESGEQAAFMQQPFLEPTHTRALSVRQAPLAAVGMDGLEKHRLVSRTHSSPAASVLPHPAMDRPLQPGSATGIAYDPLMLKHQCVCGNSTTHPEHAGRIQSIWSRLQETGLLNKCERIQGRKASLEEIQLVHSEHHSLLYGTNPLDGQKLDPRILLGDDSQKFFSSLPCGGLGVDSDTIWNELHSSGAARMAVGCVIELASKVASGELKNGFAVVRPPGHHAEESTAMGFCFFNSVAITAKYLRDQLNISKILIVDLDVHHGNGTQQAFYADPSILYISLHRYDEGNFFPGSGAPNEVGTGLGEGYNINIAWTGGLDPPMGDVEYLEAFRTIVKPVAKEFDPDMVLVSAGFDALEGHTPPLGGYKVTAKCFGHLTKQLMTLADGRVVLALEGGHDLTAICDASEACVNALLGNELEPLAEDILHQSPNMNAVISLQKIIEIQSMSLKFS

[5] = target: Class 1 histone deacetylase (Homo sapiens) (UniProt Q13547+O15379+Q92769+Q9BY41); assay: Inhibition of class 1 HDAC in human RPMI-8226 cells assessed as increase in histone H3 acetylation at 1 to 10 uM incubated for 24 hrs by Western blot analysis; type: cell-based; conditions: dose 1-10 µM
Class 1 histone deacetylase (Homo sapiens), sequence (O15379 whole entry, looked up): as the sequence (O15379 whole entry) above
Class 1 histone deacetylase (Homo sapiens), sequence (Q13547 whole entry, looked up): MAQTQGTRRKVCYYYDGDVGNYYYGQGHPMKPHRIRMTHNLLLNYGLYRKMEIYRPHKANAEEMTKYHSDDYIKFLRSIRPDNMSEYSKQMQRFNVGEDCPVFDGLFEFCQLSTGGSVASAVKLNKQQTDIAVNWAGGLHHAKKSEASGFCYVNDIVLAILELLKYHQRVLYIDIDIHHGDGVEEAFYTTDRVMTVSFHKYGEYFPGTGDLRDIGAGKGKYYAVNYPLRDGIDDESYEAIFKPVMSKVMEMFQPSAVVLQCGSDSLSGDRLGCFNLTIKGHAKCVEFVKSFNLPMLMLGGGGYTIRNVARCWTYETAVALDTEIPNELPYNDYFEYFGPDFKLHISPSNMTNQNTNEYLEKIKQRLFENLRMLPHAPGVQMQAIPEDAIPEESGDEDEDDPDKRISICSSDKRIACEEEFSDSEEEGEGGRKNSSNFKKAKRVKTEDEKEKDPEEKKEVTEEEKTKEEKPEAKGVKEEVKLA
Class 1 histone deacetylase (Homo sapiens), sequence (Q92769 whole entry, looked up): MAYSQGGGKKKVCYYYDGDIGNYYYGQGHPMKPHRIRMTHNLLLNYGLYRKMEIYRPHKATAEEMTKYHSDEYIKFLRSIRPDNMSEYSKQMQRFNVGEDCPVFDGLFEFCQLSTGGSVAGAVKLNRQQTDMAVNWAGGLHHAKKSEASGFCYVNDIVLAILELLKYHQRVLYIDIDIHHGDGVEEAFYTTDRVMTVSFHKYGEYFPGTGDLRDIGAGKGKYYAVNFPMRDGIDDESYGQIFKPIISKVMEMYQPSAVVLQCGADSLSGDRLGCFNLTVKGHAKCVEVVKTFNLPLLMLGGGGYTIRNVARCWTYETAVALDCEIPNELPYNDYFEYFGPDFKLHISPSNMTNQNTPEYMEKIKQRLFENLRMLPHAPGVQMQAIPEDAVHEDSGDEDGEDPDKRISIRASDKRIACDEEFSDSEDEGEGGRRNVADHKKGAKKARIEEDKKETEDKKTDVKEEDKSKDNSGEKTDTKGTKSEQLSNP
Class 1 histone deacetylase (Homo sapiens), sequence (Q9BY41 whole entry, looked up): as the sequence (Q9BY41 whole entry) above

[6] = target: T1, Protein deacetylase HDAC6 (Homo sapiens) (UniProt Q9UBN7); assay: Inhibition of HDAC6 in human RPMI-8226 cells assessed as increase in histone H3 acetylation at 1 to 10 uM incubated for 24 hrs by Western blot analysis; type: cell-based; conditions: dose 1-10 µM
T1 sequence (whole entry): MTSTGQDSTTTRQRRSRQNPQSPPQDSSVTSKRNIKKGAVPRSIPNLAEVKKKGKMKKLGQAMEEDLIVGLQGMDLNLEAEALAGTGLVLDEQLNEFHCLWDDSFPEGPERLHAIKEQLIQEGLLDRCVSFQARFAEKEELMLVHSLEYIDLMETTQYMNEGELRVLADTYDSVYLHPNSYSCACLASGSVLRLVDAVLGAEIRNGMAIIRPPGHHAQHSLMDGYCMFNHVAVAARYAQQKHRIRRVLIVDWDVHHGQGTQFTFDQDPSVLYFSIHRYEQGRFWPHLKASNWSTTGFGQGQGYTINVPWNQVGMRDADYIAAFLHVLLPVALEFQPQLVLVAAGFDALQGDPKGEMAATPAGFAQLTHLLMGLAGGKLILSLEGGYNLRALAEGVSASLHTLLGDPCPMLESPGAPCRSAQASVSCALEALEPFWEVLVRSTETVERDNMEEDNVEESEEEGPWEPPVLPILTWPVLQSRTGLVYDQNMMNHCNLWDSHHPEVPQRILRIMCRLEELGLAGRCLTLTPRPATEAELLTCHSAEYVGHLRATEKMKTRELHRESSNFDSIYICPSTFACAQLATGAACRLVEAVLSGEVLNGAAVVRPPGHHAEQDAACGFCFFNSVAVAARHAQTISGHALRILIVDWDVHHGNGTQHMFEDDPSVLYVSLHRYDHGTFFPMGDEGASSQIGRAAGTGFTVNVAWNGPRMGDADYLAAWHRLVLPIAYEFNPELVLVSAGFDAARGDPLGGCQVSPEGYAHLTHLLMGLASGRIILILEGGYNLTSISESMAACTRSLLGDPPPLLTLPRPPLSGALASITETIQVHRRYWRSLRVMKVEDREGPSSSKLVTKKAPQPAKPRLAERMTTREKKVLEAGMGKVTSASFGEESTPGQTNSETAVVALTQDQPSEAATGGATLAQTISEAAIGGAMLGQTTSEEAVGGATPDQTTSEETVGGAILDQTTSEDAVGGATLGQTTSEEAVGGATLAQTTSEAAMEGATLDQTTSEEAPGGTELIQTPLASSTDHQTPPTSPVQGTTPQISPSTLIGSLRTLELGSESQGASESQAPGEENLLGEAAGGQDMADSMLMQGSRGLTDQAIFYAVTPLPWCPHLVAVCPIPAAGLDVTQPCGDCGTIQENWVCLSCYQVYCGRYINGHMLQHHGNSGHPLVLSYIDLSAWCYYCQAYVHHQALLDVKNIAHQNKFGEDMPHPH

[7] = tested on: RPMI-8226; assay: cells; type: functional, cell-based; conditions: Homo sapiens; for GI50: RPMI-8226, time 72 hrs
[8] = tested on: HL-60(TB); assay: Antiproliferative activity against human HL-60(TB) cells assessed as cell growth inhibition incubated for 72 hrs by alamar blue dye based assay; type: functional
[9] = tested on: MOLT-4; assay: Antiproliferative activity against human MOLT-4 cells assessed as cell growth inhibition incubated for 72 hrs by alamar blue dye based assay; type: functional
[10] = tested on: SR; assay: Antiproliferative activity against human SR cells assessed as cell growth inhibition incubated for 72 hrs by alamar blue dye based assay; type: functional
[11] = tested on: HOP-92; assay: Antiproliferative activity against human HOP-92 cells assessed as cell growth inhibition incubated for 72 hrs by alamar blue dye based assay; type: functional
[12] = tested on: NCI-H226; assay: Antiproliferative activity against human NCI-H226 cells assessed as cell growth inhibition incubated for 72 hrs by alamar blue dye based assay; type: functional
[13] = tested on: NCI-H23; assay: Antiproliferative activity against human NCI-H23 cells assessed as cell growth inhibition incubated for 72 hrs by alamar blue dye based assay; type: functional
[14] = tested on: HT-29; assay: Antiproliferative activity against human HT-29 cells assessed as cell growth inhibition incubated for 72 hrs by alamar blue dye based assay; type: functional
[15] = tested on: SNB-75; assay: Antiproliferative activity against human SNB-75 cells assessed as cell growth inhibition incubated for 72 hrs by alamar blue dye based assay; type: functional
[16] = tested on: IGROV-1; assay: Antiproliferative activity against human IGROV-1 cells assessed as cell growth inhibition incubated for 72 hrs by alamar blue dye based assay; type: functional
[17] = tested on: OVCAR-8; assay: Antiproliferative activity against human OVCAR-8 cells assessed as cell growth inhibition incubated for 72 hrs by alamar blue dye based assay; type: functional
[18] = tested on: DU-145; assay: Antiproliferative activity against human DU-145 cells assessed as cell growth inhibition incubated for 72 hrs by alamar blue dye based assay; type: functional
[19] = tested on: MDA-MB-231; assay: Antiproliferative activity against human MDA-MB-231 cells assessed as cell growth inhibition incubated for 72 hrs by alamar blue dye based assay; type: functional
[20] = tested on: Hs-578T; assay: Antiproliferative activity against human Hs-578T cells assessed as cell growth inhibition incubated for 72 hrs by alamar blue dye based assay; type: functional
[21] = Cmax in Sprague-Dawley rat at 0.2 mg/kg, iv by LC-MS/MS analysis; type: ADME, organism-based; conditions: in vivo
[22] = Volume of distribution at steady state in Sprague-Dawley rat at 0.2 mg/kg, iv by LC-MS/MS analysis; type: ADME, organism-based; conditions: in vivo, read-out: Vdss
[23] = Half life in Sprague-Dawley rat at 0.2 mg/kg, iv by LC-MS/MS analysis; type: ADME, organism-based; conditions: in vivo
[24] = AUC (0 to infinity) in Sprague-Dawley rat at 3 mg/kg, po by LC-MS/MS analysis; type: ADME, organism-based; conditions: in vivo
[25] = Half life in Sprague-Dawley rat at 3 mg/kg, po by LC-MS/MS analysis; type: ADME, organism-based; conditions: in vivo

Polyamine deacetylase HDAC10, sequence (Q969S8 whole entry): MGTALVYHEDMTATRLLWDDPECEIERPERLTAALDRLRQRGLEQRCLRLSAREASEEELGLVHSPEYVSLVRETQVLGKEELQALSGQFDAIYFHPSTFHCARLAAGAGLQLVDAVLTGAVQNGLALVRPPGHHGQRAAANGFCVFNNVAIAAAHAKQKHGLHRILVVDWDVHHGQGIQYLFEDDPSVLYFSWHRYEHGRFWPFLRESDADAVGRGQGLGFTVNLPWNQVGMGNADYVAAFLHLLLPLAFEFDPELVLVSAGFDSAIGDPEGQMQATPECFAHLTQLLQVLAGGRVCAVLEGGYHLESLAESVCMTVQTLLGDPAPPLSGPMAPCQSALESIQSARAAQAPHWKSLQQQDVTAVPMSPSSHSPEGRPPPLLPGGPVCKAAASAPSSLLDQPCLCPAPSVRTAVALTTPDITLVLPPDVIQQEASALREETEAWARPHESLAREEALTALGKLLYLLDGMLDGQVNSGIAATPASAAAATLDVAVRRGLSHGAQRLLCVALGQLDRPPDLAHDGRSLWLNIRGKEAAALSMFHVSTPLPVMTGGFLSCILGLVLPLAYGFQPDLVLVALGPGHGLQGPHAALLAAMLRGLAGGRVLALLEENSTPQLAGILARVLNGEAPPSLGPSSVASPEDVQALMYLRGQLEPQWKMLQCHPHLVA

Compound | GI50 [7] | GI50 [8] | GI50 [9] | GI50 [10] | GI50 [11] | GI50 [12] | GI50 [13] | GI50 [14] | GI50 [15] | GI50 [16] | GI50 [17] | GI50 [18] | GI50 [19] | GI50 [20] | other results
O=C(NO)c1ccc(CNC(=O)[C@H]2Cc3c([nH]c4ccccc34)[C@H](c3ccc(Cl)cc3)N2)cc1 | 0.564 µM | 0.706 µM | 0.563 µM | 1.15 µM | 0.93 µM | 2.27 µM | 1.33 µM | 0.838 µM | 2.26 µM | 1.2 µM | 0.942 µM | 1.08 µM | 0.887 µM | 1.01 µM | IC50 [1]: 0.496 µM; IC50 [2]: 0.103 µM; IC50 [3]: 0.292 µM; IC50 [4]: > 50 µM; inhibition [5]: Active; inhibition [6]: Active; IC50 ([7]; RPMI-8226, 72 h): 0.62 µM; Cmax [21]: 1020 nM; Vd [22]: 0.81 L/kg; half-life [23]: 3.38 h; AUC(0-inf) [24]: 9.71 µM·h; half-life [25]: 3.41 h
COc1ccc(CN2[C@@H](C(=O)NCc3ccc(C(=O)NO)cc3)Cc3c([nH]c4ccccc34)[C@@H]2C2CC2)cc1 | 2.92 µM | 2.73 µM | 1.85 µM | > 19.8 µM | 2.62 µM | 3.41 µM | 2.75 µM | 4.84 µM | 1.13 µM | 2.6 µM | 2.56 µM | 4.38 µM | 2.43 µM | 1.85 µM | –
